According to publication PMC5175178, “Development of an in-vivo active reversible butyrylcholinesterase inhibitor” (Scientific Reports, 2016):
Read-outs that look alike come from different tables or passages of the source.

What was measured:
[1] = test system: Aβ(1–42)-induced cytotoxicity in SH-SY5Y cells; test: Neuroprotection against Aβ(1–42)-induced cytotoxicity, PI flow cytometry; type: cell-based, human; conditions: 10 μM, 5 μM Aβ(1–42), 48 h
Method: Neurotoxicity induced by Aβ species (mainly Aβ(1–42)) is a contributor to the pathogenesis of neurodegeneration in AD[41]. […]. […] […].
Supplementary Figure 8. […]. […].
[…]; Sigma, St. Louis, MO, USA). […] SH-SY5Y cells were seeded into a 24-well culture plate (1.2 ×10^5/well) and next day, treated as described above. After 48 h treatment, cells were washed with pre-warmed PBS and further stained with PI solution (30 µM) for 15 min at 37 °C. Cells were then analyzed for cytotoxicity by flow cytometry on FACS Calibur (BD Bioscience, San Jose, CA, USA). The percentage of PI positive cells (PI^pos) was evaluated using FlowJo software (Ashland, OR, USA) and results are presented as a relative fold increase of PI^pos corresponding vehicle treatment (DMSO control).

[2] = target: T1, Aβ1–42 aggregation (Homo sapiens, UniProt P05067); test: Aβ1–42 aggregation inhibition, thioflavin-T fluorometric assay; type: biochemical
T1 construct: Recombinant human HFIP-pretreated Aβ1–42 peptide (Merck Millipore, Darmstadt, Germany); purchased Merck Millipore, Darmstadt, Germany
T1 sequence (P05067 672-713): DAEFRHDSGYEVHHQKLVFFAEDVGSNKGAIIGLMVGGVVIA
Method: Recombinant human HFIP-pretreated Aβ1–42 peptide (Merck Millipore, Darmstadt, Germany) was dissolved in DMSO to give 75 μM stock solution. […]. The ThT emission of the Aβ1–42 began to rise after 4 h, reached a plateau after 20 h, and remained almost unchanged for an additional 28 h of incubation. The fluorescence intensities at the plateau in the absence and presence of the test compound were averaged, and the average fluorescence of the corresponding wells at t= 0 h was subtracted. […]

[3] = target: T1, Aβ1–42 aggregation; test: Aβ1–42 aggregation inhibition, dot-blot assay; type: biochemical; conditions: 10 μM compound
Method: Recombinant human HFIP-pretreated Aβ1–42 peptide (Merck Millipore, Darmstadt, Germany) was dissolved in DMSO to give 100 μM stock solution. Prior to the incubations, the Aβ1–42 peptide stock solution was diluted in HEPES buffered solution (150 mM HEPES, pH 7.4, 150 mM NaCl) to give 10 μM Aβ1–42. […]; 10 μM final concentration), and added to the black-walled 96-well plates in quadruplicate, and diluted with HEPES buffered solution to a final volume of 100 μL. To determine the blank value (b), 1% DMSO in HEPES buffered solution replaced the Aβ1–42 peptide solution. The sealed 96-well plate was placed in an incubator at 37 °C with continuous shaking, for 24 h. Then 10 μL from each well were spotted on nitrocellulose membrane. The membrane was dried and blocked with 5% non-fat milk in TBST (50 mM Tris, pH 7.4, 150 mM NaCl, 0.1% Tween 20) at room temperature for 30 min, washed with TBST, and probed with the LOC anti-amyloid fibrils antibody (Millipore, 1:10,000, in 2% non-fat milk-TBST) or the OC anti-amyloid fibrils antibody (Millipore, 1:10,000, in 2% non-fat milk-TBST), for 1 h. […] The blots were developed with Pierce ECL Western Blotting Substrate (Thermo Scientific) for 2 min, detected with a Bio-Rad ChemiDoc MP Imaging System, and further analyzed with Image Lab software (Bio-Rad). Inhibition of the Aβ1–42 aggregation was quantified using equation: […]

[4] = in vitro; type: in vitro ADME; set-up: protein bound: dose or concentration left out as unconfirmed; conditions: for recovery at 4 h, 10 µM: human, pH 7.4, human plasma protein binding assay
Method: The experiment was accepted in accordance with Eurofins validation Standard Operating Procedure.
The equilibrium dialysis technique was used to separate the fraction of the bound to human plasma protein. The assay was performed in a 96-well format in a dialysis block constructed from Teflon to minimize the unspecific binding^25. Plasma from human was used as the default protein containing matrix. […] The dialysate compartment was loaded with the phosphate buffered saline (PBS, pH 7.4), and the sample side was loaded with equal volume of the spiked protein matrix. The dialysis plate was then sealed and incubated at 37 °C for 4 h. A control sample (n = 2) was prepared from the spiked protein matrix in the same manner as the assay sample (without dialysis). The control sample served as the basis for the recovery determination. After the incubation, samples were taken from each compartment, diluted with phosphate buffer followed by addition of acetonitrile and centrifugation. The supernatants were then used for HPLC-MS/MS analysis using selected reaction monitoring. The HPLC conditions consisted of a binary LC pump with autosampler, a C18 column (2 × 20 mm), and gradient elution.
Protein binding (%) = (Areap-Areab) / Areap ×100 (3),
Recovery (%) = (Areap-Areab) / Areac ×100 (4),
The recovery determination serves as an indicator of reliability of the calculated protein binding value. Low recovery would indicate that the test compound is lost during the course of the assay, most likely due to non-specific binding or degradation.

[5] = test system: scopolamine-induced memory impairment in mice; test: Passive avoidance task, scopolamine-induced memory impairment; type: in vivo, Albino Swiss (CD–1 Krf) mice
Method: The first behavioral test performed was the passive avoidance (PA) task, which allows the evaluation of the effects of a drug on fear-motivated contextual memory. […] In the passive avoidance task, better memory performance is determined according to a longer step-through latency in the retention trial (i.e., the testing phase) than in the acquisition trial (i.e., the conditioning phase). […] The mice had free access to food and water, and the ambient temperature and humidity of the room were kept constant throughout all of the tests. For the behavioral tasks, the mice were selected at random, and each group consisted of 8 to 10 mice dose^−1. The experiments were performed between 08:00 and 14:00. Immediately after these in-vivo assays, the animals were euthanized by cervical dislocation. […] All efforts were made to minimize the number of mice used and their suffering.
The effect of the test compounds on acquisition and retention in the passive avoidance task was conducted accordingly to a previously described method^30. For this purpose, the passive avoidance apparatus was used (Panlab Harvard Apparatus, Spain).
The testing phase was conducted 24 h after the acquisition phase. For the acquisition, each mouse was initially placed for 30 s in the light compartment (exploration period; guillotine gate closed). At the end of the exploration period the guillotine door between the light and the dark compartments was opened and the time elapsed before entering the black chamber was recorded. As soon as the mouse entered the dark compartment, the door automatically closed and an electrical shock (current intensity: 0.2 mA, duration: 2 s) was delivered through the grid floor.
For the retention trial (drug off), the mice were placed in the illuminated white compartment again, and the latency time between door opening and entry into the dark compartment was recorded for each mouse. […] Better memory performance was indicated by longer latency before entry into the black chamber in the test (retention) phase than in the conditioning (acquisition) phase.

[6] = test system: mice; test: Observation of acute cholinergic adverse effects; type: in vivo; conditions: even at 100 mg kg^−1
[7] = in vitro; conditions: human, plasma
Method: (§1) The plasma metabolic stability and hepatic clearance were estimated by the substrate depletion method.
(§2) The incubation was performed in a 37 °C water bath for 2 h. An aliquot of the incubation mixture was transferred to acetonitrile at 0, 0.5, 1, 1.5 and 2 h, respectively. Samples were then mixed and centrifuged. Supernatants were used for HPLC-MS/MS analysis using selected reaction monitoring, and peak areas were recorded for each analyte. The HPLC conditions consisted of a binary LC pump with autosampler, a C18 column (2 × 20 mm), and gradient elution. The area of precursor compound remaining after each time points relative to the amount remaining at time zero, expressed as percent, is calculated. Subsequently, the half-life (t1/2) was estimated from the slope of the initial linear range of the logarithmic curve of the compound remaining (%) versus time, assuming first order kinetics.

[8] = in vitro; conditions: both, human, hepatocytes, pH 7.3
Method: as §1
(§3) Cryopreserved hepatocytes (mixed gender and pool of 10 or more) were thawed, washed, and resuspended in Krebs-Heinslet buffer (pH 7.3). […] The reaction was stopped by adding acetonitrile into the incubation mixture. Samples were then mixed, transferred completely to another 96-well plate, and centrifuged. Supernatants were used for HPLC-MS/MS analysis. As reference substances, four compounds were tested in each assay. […] In the HPLC-MS/MS analysis peak areas corresponding to the test compounds were recorded. Metabolic stability, expressed as percentage of the parent compound remaining, was calculated by comparing the peak area of the compound at the time point relative to that at time 0. The half-life (t1/2) was estimated from the slope of the initial linear range of the logarithmic curve of the compound remaining (%) versus time, assuming first order kinetics. The apparent intrinsic clearance (Clint in µL/min/million cells) was calculated from the half-life according to the following formula:

[9] = Human plasma stability
Method: as §1, §2

[10] = test system: mice; test: Locomotor activity test; conditions: 30 mg kg^–1 IP, 1 h before the assay
Description: Eight-week-old male Albino Swiss (CD–1 Krf) mice weighing from 18 g to 22 g were used in the passive avoidance task, and the locomotor activity and rotarod tests, and C57BL/6 J mice of the same age were used in the MWM and the RAWM tasks. […] The mice had free access to food and water, and the ambient temperature and humidity of the room were kept constant throughout all of the tests. For the behavioral tasks, the mice were selected at random, and each group consisted of 8 to 10 mice dose^−1. The experiments were performed between 08:00 and 14:00. Immediately after these in-vivo assays, the animals were euthanized by cervical dislocation. […] All efforts were made to minimize the number of mice used and their suffering.
Data are means ±SEM. The vehicle and the test compound were administered intraperitoneally, 1 h before the assay. Statistical analysis of the data was performed using repeated measures analysis of variance (ANOVA), followed by Bonferroni multiple comparisons.
The mouse locomotor activity (i.e., number of light-beam crossings) was measured during the next 30 min of the test^36.

[11] = Caco-2 monolayer bidirectional permeability assay; conditions: human, Caco-2, Papp(A–B), apical-to-basolateral, 100 µM donor
Method: They were grown on Transwell® culture inserts with a polycarbonate membrane (diameter, 12 mm; pore size, 0.4 µm). 50,000 cells/filter membranes were used for seeding and the medium was changed every two days. At day 18, transepithelial electrical resistance (TEER) was measured for each filter with Caco-2 cell monolayers. […] The samples were acidified by dilution with the same volume of 0.01M HCl before fluorescence measurements.
Ringer buffer with 10 mM d-glucose or 10 mM mannitol on apical and basolateral side of the tissue, respectively, was used as an incubation saline. […] The stock solutions were added either to the apical or to the basolateral compartment to obtain bidirectional permeability measurements. Six samples were withdrawn in 20 min intervals. Each time 300 µl was taken from the 1500 µL basolateral acceptor compartment and 100 µL from the 500 µL apical acceptor compartment. These volumes were immediately replaced by the appropriate fresh incubation saline. […] All apparent permeability coefficients were calculated as described previously^24.

[12] = test system: cryopreserved human hepatocytes; test: Metabolic stability in cryopreserved human hepatocytes; conditions: 1 µM
Method: as §1, §3

[13] = test system: HepG2 cells; test: Cytotoxicity in HepG2 cells, MTS metabolic activity assay; conditions: 24 h
Method: After 24 h (a) or 48 h (b), the cell viability was evaluated using the MTS assay. The control group (DMSO) was considered as 100% cell viability. Data are means ±SD of at least three independent experiments, each carried out in triplicate (a) and quadruplicate (b).
HepG2 cells (1 ×10^4 cells/well) were treated for 24 h with the appropriate concentrations of the compounds of interest or the corresponding vehicle (control cells), in triplicates in 96-well plates. The metabolic activities were determined using the CellTiter 96 Aqueous One Solution Cell Proliferation Assay (Promega, WI/USA), according to the manufacturer instructions.

[14] = test system: scopolamine-induced memory impairment in mice; test: Morris water maze task, scopolamine-induced memory impairment
Method: In this task the time taken to reach the hidden platform (i.e., the escape latency time), the distance travelled, and the mean speed of swimming are recorded for each experimental group. […] For the behavioral tasks, the mice were selected at random, and each group consisted of 8 to 10 mice dose^−1. The experiments were performed between 08:00 and 14:00. Immediately after these in-vivo assays, the animals were euthanized by cervical dislocation. […] All efforts were made to minimize the number of mice used and their suffering.
The Morris water maze is a circular, plastic, grey-painted pool (diameter, 120 cm; height, 60 cm), filled with water (up to about 48 cm below the edge, to prevent an animal from jumping out) that was maintained at 23 ±1 °C. The pool was divided into four equal quadrants (compass locations: NE, NW, SE, SW) by a computerized video tracking system (SMART, ver. 3.0; Panlab, Spain). An escape platform (diameter, 11 cm; height, 47 cm) at a fixed location (the center of the NW quadrant; i.e., the target quadrant). The escape platform was made of transparent Plexiglas and was immersed 1 cm under the surface of water; this was invisible to the swimming mouse. The maze was lighted with the intensity of 45 lx.
During the spatial acquisition trial (six consecutive days), the mice were assigned to training sessions (four training sessions a day; 4 h apart) in which the mice were trained to escape from the water by reaching the hidden platform, the location of which could be identified using distal extra-maze cues (A4-sized sheets of black laminated paper with colored geometric symbols) attached to the room walls to provide navigation points^31. Visual cues had different colors and dimensions, and were kept constant during the whole experiment^31,32. The whole experiment was conducted by an experimenter who remained always stationary in a constant location, thus serving as an additional distal cue for the swimming mice. […] The time taken to reach the hidden platform (escape latency time), distance travelled to reach the platform, and mean speed were recorded in each experimental group and analyzed.
On the seventh day (24 h after the last training) the platform was removed from the pool and a probe trial was performed (without drug treatment). Each animal was released from a different start point and was allowed to swim for 60 s. […] Latency time to the first crossing of the former platform location (target zone), number of crossings of the target zone, time spent in the target NW quadrant, total distance, distance spent in NW quadrant, entries into the NW quadrant, and mean speed were measured^31.

[15] = human plasma, 10 µM, 37 °C, 4 h
[16] = probe trial day 7, scopolamine + 30 mg kg^–1

COCCN(CC1CCCN(Cc2ccccc2)C1)S(=O)(=O)c1ccc2ccccc2c1 (racemic) [compound 2, (±)-N-((1-benzylpiperidin-3-yl)methyl)-N-(2-methoxyethyl)naphthalene-2-sulfonamide]
neuroprotective effect on Aβ(1–42)-induced cell death [1]: reversed Aβ(1–42)-induced cell death | Aβ(1–42) aggregation inhibition ([2]; 10 μM): did not inhibit Aβ(1–42) aggregation | inhibition at 10 µM ([2]; 10 μM compound, 1.5 μM Aβ1–42, read-out: Percent inhibition ±SEM (%) ThT): -4.89% | inhibition at 10 µM ([3]; read-out: Percent inhibition ±SEM (%) Dot blot (LOC antibody)): 12.7 ± 8.9% | inhibition at 10 µM ([3]; read-out: Percent inhibition ±SEM (%) Dot blot (OC antibody)): 2.7 ± 9.32% | protein bound ([4]; human blood plasma, equilibrium dialysis): 96% | Protein Bound (%) 1st [4, 15]: 96.0% | Protein Bound (%) 2nd [4, 15]: 95.3% | Protein Bound (%) Mean [4, 15]: 96% | recovery at 4 h, 10 µM ([4]; read-out: Recovery (%) 1st): 101% | recovery at 4 h, 10 µM ([4]; read-out: Recovery (%) 2nd): 99% | recovery at 4 h, 10 µM ([4]; read-out: Recovery (%) Mean): 100% | step-through latency, retention trial ([5]; 10 mg kg^−1 IP before scopolamine 1 mg kg^−1): 70 s | step-through latency, retention trial ([5]; 20 mg kg^−1 IP before scopolamine 1 mg kg^−1): 58 s | step-through latency, retention trial ([5]; 30 mg kg^−1 IP before scopolamine 1 mg kg^−1): 102 s | acute cholinergic adverse effects [6]: no acute cholinergic adverse effects | half-life at 1 µM [7]: > 2 h | half-life at 1 µM [8]: 0.928 h | half-life in human plasma ([9]; discussion): > 2 h | Half-Life t1/2 (min) 1st ([9]; human plasma, 1 µM, 37 °C): 223.1 min | Half-Life t1/2 (min) 2nd ([9]; human plasma, 1 µM, 37 °C): 206.7 min | Half-Life t1/2 (min) Mean ([9]; human plasma, 1 µM, 37 °C): >120 min | locomotor activity of mice [10]: transient reduction in the locomotor activity | Papp A→B at 120 min, 100 µM [11]: 30 ± 10.7 ×10⁻⁶ cm/s | Half-Life t1/2 (min) 2nd [12]: 51.7 min | Half-Life t1/2 (min) Mean [12]: 54 min | Half-Life t1/2 (min) 2rd ([12]; third replicate column): 55.6 min | LD50 HepG2 cells [13]: 58.67 µM | distance travelled to reach the platform ([14]; day 3, scopolamine + 30 mg kg^−1): 5.38 m | distance travelled to reach the platform ([14]; day 5, scopolamine + 30 mg kg^−1): 1.69 m | Distance in goal quadrant (% ±SEM) [14, 16]: 45.35 ±2.6 F[2,25] = 0.2035; NS % | Entries in zone NW (n ±SEM) [14, 16]: 7.3 ±0.7 F[2,25] = 14.59; p <0.0001 n | Latency time (s ±SEM) [14, 16]: 1.2 ±0.4 F[2,25] = 1.792; NS s | Number of NW zone crossings (n ±SEM) [14, 16]: 2.6 ±0.5 F[2,25] = 2.182; NS n | Time in target (NW) quadrant (s ±SEM) [14, 16]: 29.3 ±1.5 F[2,25] = 0.8737; NS s | Total distance covered (m ±SEM) [14, 16]: 11.5 ±0.6 F2,25] = 0.3439; NS m | mean speed of swimming ([14]; scopolamine + compound 2 30 mg kg^−1 (vehicle 0.17)): 0.16 m s^−1
